Laboratory results taken from patent US20090023646A1, “GHRH analogues” (Centre Hospitalier de L'Universite de Montreal (CHUM), priority 2002, published 2009).
Square brackets hold non-standard residues; d marks the D form. Ends that are not written are not given here. Peptide text beside a SMILES is read from it.

Assays:
[1] = In vitro proteolysis assay in rat serum; format: in vitro ADME; settings: mean±SEM; for Residual concentration: incubation 0 min; for remaining at 8 min, 15 µM / remaining at 0.25 h, 15 µM / remaining at 0.5 h, 15 µM / remaining at 1 h, 15 µM: male, Sprague Dawley, read-out: Residual concentration; for remaining at 8 min, 15 µM: diluted 1/100, incubation 8 min; for remaining at 0.25 h, 15 µM: diluted 1/100, incubation 15 min; for remaining at 0.5 h, 15 µM: diluted 1/100, incubation 30 min; for remaining at 1 h, 15 µM: diluted 1/100, incubation 60 min
Method: Proteolysis was stopped by adding 800 μl of ice-cold stop buffer (potassium-phosphate buffer, acidified to pH 0.8 with trifluoroacetic acid (TFA) and boiling 5 min (rat serum only). After centrifugation (12000 g, 5 min, 4° C.) (rat serum only), serum-peptide mixtures were passed through a conditioned Sep-Pak C-18 cartridge to extract native GHRH or a GHRH analogue residual concentrations from serum proteins. The native GHRH or the analogue was eluted in 2 ml of 50% acetonitrile-0.01% TFA/50% 0.01% aqueous TFA. Two hundred μl of extracted peptide, representing 1 μg of GHRH or analogue at time 0, was quantified by analytical HPLC, using one μ-Bondapak C18 column (10 μm particle size, 0.39×15 cm) (rat serum) or two C18 column in series (human serum and plasma) and a binary solvent system composed of NaClO4 0.01 M, pH 2.5 and acetonitrile. A linear gradient from 30 to 60% acetonitrile over 45 min (rat serum) or 30 to 50% (human serum and plasma) was used.

[2] = biological target: T1, human GHRH receptor (Homo sapiens, UniProt Q02643); assay: Competitive 125I-GHRH binding assay in BHK cell membrane preparations expressing the human GHRH receptor; settings: ratio IC50 of hGHRH(1-29)-NH2/IC50 analogue, mean±SEM
T1 construct: expressed in transfected cells; host or cells: BHK (baby hamster kidney) 570 cells
T1 sequence (Q02643 23-423): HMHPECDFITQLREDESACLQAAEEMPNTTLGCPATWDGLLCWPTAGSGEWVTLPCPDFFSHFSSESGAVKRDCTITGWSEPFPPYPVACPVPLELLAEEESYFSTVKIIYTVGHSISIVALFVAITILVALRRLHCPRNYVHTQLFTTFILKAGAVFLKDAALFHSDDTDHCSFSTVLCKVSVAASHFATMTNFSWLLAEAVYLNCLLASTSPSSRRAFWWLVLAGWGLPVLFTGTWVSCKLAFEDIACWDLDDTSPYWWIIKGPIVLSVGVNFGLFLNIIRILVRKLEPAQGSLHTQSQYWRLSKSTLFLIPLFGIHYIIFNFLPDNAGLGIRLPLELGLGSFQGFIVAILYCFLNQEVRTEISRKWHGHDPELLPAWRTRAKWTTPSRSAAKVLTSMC
Method: Non specific binding was determined in presence of 1 μM hGHRH(1-29)NH2. Incubation was carried out at equilibrium (23° C., 60 min) and stopped by centrifugation (12,000 g, 5 min, at 4° C.). The radioactivity content in pellets was determined by gamma counting. The affinity of hGHRH(1-29) NH2 was tested in each experiment to assess the validity of the assay and determine the relative affinity of the analogues.
Values represent the mean±SEM of 3 experiments performed in triplicate for the analogues and the mean±SEM of 2 experiments performed in triplicate for hGHRH(1-44) NH2.
For the binding assay results presented in Tables 8 to 11, values represent the mean±SEM of 8 independent experiments performed in triplicate for the analogues and the mean±SEM of 4 experiments performed in triplicate for hGHRH(1-29)NH2. […] The relative affinity was obtained by taking the ratio IC50 of hGHRH (1-29)-NH2/IC50 analogue.

[3] = In vitro proteolysis assay in human serum; format: in vitro ADME; settings: human serum
Method: (§1) Ten μl of a 300 M solution of hGHRH (1-29)NH2 or of a GHRH analogue was solubilized in dimethylsulfoxide (DMSO) and incubated in one of the following conditions: a—190 μl serum (1/100 dilution in picopure water) from 2-month-old male Sprague Dawley rats, at 37° C. for 0, 8, 15, 30 or 60 min, in polypropylene tubes; b—190 μl of human healthy volunteer plasma (from Human Whole Blood Na EDTA, males, drug free (Algorithme Pharma Inc.); project: MTL-P2-155; Lot: MTLP2155-01, supplied by LAB Dev Int); and c—190 μl of human healthy volunteer pooled serum, Lot: X409 (supplied by LAB Dev Int), at 37° C. for 0, 60, 120, 180 or 420 min, in polypropylene tubes. Proteolysis was stopped by adding 800 μl of ice-cold stop buffer (potassium-phosphate buffer, acidified to pH 0.8 with trifluoroacetic acid (TFA) and boiling 5 min (rat serum only). After centrifugation (12000 g, 5 min, 4° C.) (rat serum only), serum-peptide mixtures were passed through a conditioned Sep-Pak C-18 cartridge to extract native GHRH or a GHRH analogue residual concentrations from serum proteins. The native GHRH or the analogue was eluted in 2 ml of 50% acetonitrile-0.01% TFA/50% 0.01% aqueous TFA. Two hundred μl of extracted peptide, representing 1 μg of GHRH or analogue at time 0, was quantified by analytical HPLC, using one μ-Bondapak C18 column (10 μm particle size, 0.39×15 cm) (rat serum) or two C18 column in series (human serum and plasma) and a binary solvent system composed of NaClO4 0.01 M, pH 2.5 and acetonitrile. A linear gradient from 30 to 60% acetonitrile over 45 min (rat serum) or 30 to 50% (human serum and plasma) was used.
(§2) More specifically, the values represent the mean, standard deviation and standard error from the mean of 3 to 7 experiments.

[4] = in vitro; settings: male, human, plasma, Mean residual amount
Method: as §1, §2

Molecule	Residual concentration [1]	remaining at 8 min, 15 µM [1]	remaining at 0.25 h, 15 µM [1]	remaining at 0.5 h, 15 µM [1]	remaining at 1 h, 15 µM [1]	Relative binding affinity (R1) in comparison with hGHRH(1-29)NH2 in BHK cells expressing the hGHRH receptor [2]	Mean residual amount ([3]; incubation time 0 min)	Mean residual amount ([3]; incubation time 420 min)	remaining at 1 h, 15 µM ([3]; human, pooled human serum, incubation time 60 min, read-out: Mean residual amount)	remaining at 2 h, 15 µM ([3]; human, pooled human serum, incubation time 120 min, read-out: Mean residual amount)	remaining at 3 h, 15 µM ([3]; human, pooled human serum, incubation time 180 min, read-out: Mean residual amount)	remaining at 7 h, 15 µM ([3]; human, pooled human serum, incubation time 420 min, read-out: Mean residual amount)	remaining at 1 h, 15 µM [4]	remaining at 2 h, 15 µM [4]	remaining at 3 h, 15 µM [4]	remaining at 7 h, 15 µM [4]	Relative binding affinity (R1) in comparison with hGHRH(1-29)NH2 in BHK cells expressing the hGHRH receptor ([2]; listed as 1)	Relative binding affinity (R1) in comparison with hGHRH(1-29)NH2 in BHK cells expressing the hGHRH receptor ([2]; listed as #1)	Relative binding affinity (R1) in comparison with hGHRH(1-29)NH2 in BHK cells expressing the hGHRH receptor ([2]; D-Tyr^10, Lys^22]human GHRH(1-29)NH2)
CC[C@H](C)[C@H](NC(=O)[C@H](C)NC(=O)[C@H](CC(=O)O)NC(=O)[C@@H](C)NC(=O)[C@@H](N)Cc1ccc(O)cc1)C(=O)N[C@@H](Cc1ccccc1)C(=O)N[C@H](C(=O)N[C@@H](C)C(=O)N[C@@H](CO)C(=O)N[C@H](Cc1ccc(O)cc1)C(=O)N[C@@H](CCCNC(=N)N)C(=O)N[C@@H](CCCCN)C(=O)N[C@H](C(=O)N[C@@H](CC(C)C)C(=O)N[C@@H](C)C(=O)N[C@@H](CCC(N)=O)C(=O)N[C@@H](CC(C)C)C(=O)N[C@@H](CO)C(=O)N[C@@H](C)C(=O)N[C@@H](CCCNC(=N)N)C(=O)N[C@H](CCCCN)C(=O)N[C@@H](CCCCN)C(=O)N[C@@H](CC(C)C)C(=O)N[C@@H](CCC(N)=O)C(=O)N[C@@H](CC(=O)O)C(=O)N[C@H](C(=O)N[C@@H](CCSC)C(=O)N[C@@H](CO)C(=O)N[C@@H](CCCNC(=N)N)C(N)=O)[C@@H](C)CC)C(C)C)[C@@H](C)O [GHRH analogue #4, [D-Ala^2, Ala^8, D-Tyr^10, Ala^15, D-Lys^21, Lys^22] hGHRH(1-29)-NH2] (H-Y[dA]DAIFTAS[dY]RKVLAQLSAR[dK]KLQDIMSR-NH2; N-terminus assumed)	100 ± 0 % of initial concentration	98 ± 2%	100%	99 ± 1%	97 ± 3%	0.05 ± 0.01													
CC[C@H](C)[C@H](NC(=O)[C@H](C)NC(=O)[C@H](CC(=O)O)NC(=O)[C@H](C)NC(=O)[C@@H](N)Cc1ccc(O)cc1)C(=O)N[C@@H](Cc1ccccc1)C(=O)N[C@H](C(=O)N[C@@H](CC(N)=O)C(=O)N[C@@H](CO)C(=O)N[C@@H](Cc1ccc(O)cc1)C(=O)N[C@@H](CCCNC(=N)N)C(=O)N[C@@H](CCCCN)C(=O)N[C@H](C(=O)N[C@@H](CC(C)C)C(=O)NCC(=O)N[C@@H](CCC(N)=O)C(=O)N[C@@H](CC(C)C)C(=O)N[C@@H](CO)C(=O)N[C@@H](C)C(=O)N[C@@H](CCCNC(=N)N)C(=O)N[C@@H](CCCCN)C(=O)N[C@@H](CC(C)C)C(=O)N[C@@H](CC(C)C)C(=O)N[C@@H](CCC(N)=O)C(=O)N[C@@H](CC(=O)O)C(=O)N[C@H](C(=O)N[C@@H](CCSC)C(=O)N[C@@H](CO)C(=O)N[C@@H](CCCNC(=N)N)C(N)=O)[C@@H](C)CC)C(C)C)[C@@H](C)O [hGHRH(1-29)NH2, reference compound]	100 ± 0 % of initial concentration	81 ± 2%	66 ± 3%	43 ± 2%	16 ± 1%		100%	disappeared totally	57%	37%	16%	0%	53%	44%	23%	5%			
CC[C@H](C)[C@H](NC(=O)[C@H](C)NC(=O)[C@H](CC(=O)O)NC(=O)[C@@H](C)NC(=O)[C@@H](N)Cc1ccc(O)cc1)C(=O)N[C@@H](Cc1ccccc1)C(=O)N[C@H](C(=O)N[C@@H](C)C(=O)N[C@@H](CO)C(=O)N[C@@H](Cc1ccc(O)cc1)C(=O)N[C@@H](CCCNC(=N)N)C(=O)N[C@@H](CCCCN)C(=O)N[C@H](C(=O)N[C@@H](CC(C)C)C(=O)N[C@@H](C)C(=O)N[C@@H](CCC(N)=O)C(=O)N[C@@H](CC(C)C)C(=O)N[C@@H](CO)C(=O)N[C@@H](C)C(=O)N[C@@H](CCCNC(=N)N)C(=O)N[C@@H](CCCCN)C(=O)N[C@@H](CCCCN)C(=O)N[C@@H](CC(C)C)C(=O)N[C@@H](CCC(N)=O)C(=O)N[C@@H](CC(=O)O)C(=O)N[C@H](C(=O)N[C@@H](CCSC)C(=O)N[C@@H](CO)C(=O)N[C@@H](CCCNC(=N)N)C(N)=O)[C@@H](C)CC)C(C)C)[C@@H](C)O [GHRH analogue #1, [D-Ala^2, Ala^8, Ala^15, Lys^22] hGHRH(1-29)-NH2] (H-Y[dA]DAIFTASYRKVLAQLSARKKLQDIMSR-NH2; N-terminus assumed)	100 ± 0 % of initial concentration	75 ± 12%	70 ± 15%	53 ± 8%	30 ± 6%								79%	63%	68%		499 ± 234	significantly higher binding affinity	
CC[C@H](C)[C@H](NC(=O)[C@H](C)NC(=O)[C@H](CC(=O)O)NC(=O)[C@@H](C)NC(=O)[C@@H](N)Cc1ccc(O)cc1)C(=O)N[C@@H](Cc1ccccc1)C(=O)N[C@H](C(=O)N[C@@H](CC(N)=O)C(=O)N[C@@H](CO)C(=O)N[C@H](Cc1ccc(O)cc1)C(=O)N[C@@H](CCCNC(=N)N)C(=O)N[C@@H](CCCCN)C(=O)N[C@H](C(=O)N[C@@H](CC(C)C)C(=O)NCC(=O)N[C@@H](CCC(N)=O)C(=O)N[C@@H](CC(C)C)C(=O)N[C@@H](CO)C(=O)N[C@@H](C)C(=O)N[C@@H](CCCNC(=N)N)C(=O)N[C@@H](CCCCN)C(=O)N[C@@H](CCCCN)C(=O)N[C@@H](CC(C)C)C(=O)N[C@@H](CCC(N)=O)C(=O)N[C@@H](CC(=O)O)C(=O)N[C@H](C(=O)N[C@@H](CCSC)C(=O)N[C@@H](CO)C(=O)N[C@@H](CCCNC(=N)N)C(N)=O)[C@@H](C)CC)C(C)C)[C@@H](C)O [GHRH analogue #3, [D-Ala^2, D-Tyr^10, Lys^22] hGHRH(1-29)-NH2] (H-Y[dA]DAIFTNS[dY]RKVLGQLSARKKLQDIMSR-NH2; N-terminus assumed)	100 ± 0 % of initial concentration	82 ± 7%	88 ± 7%	70 ± 12%	36 ± 4%								87%	78%	81%				239 ± 55
YADAIFTAAYRKVLAQLSARKALQDIMSR-NH2 [GHRH analogue #2, [Ala^8, Ala^9, Ala^15, Ala^22] hGHRH(1-29)-NH2]	100 ± 0 % of initial concentration	83 ± 3%	73 ± 5%	53 ± 3%	29 ± 2%														
